Experimental data published in patent US4122034A, “Antimicrobial compositions” (Schering Corporation, priority 1975, dated 1978).
In brackets after ≈: the same amount, converted by molar mass.

Columns and labels:
[1] = test system: Enterococcus; experiment: In vitro antibacterial activity, dilution in Mueller Hinton Agar (Table I); assay type: cell-based
Procedure: (§1) All the tests were carried out and (when necessary) scored under standard conditions. "MIC" means "minimum inhibitory concentration."
In vitro Antibacterial Activity of 2-aminoalkyl-3-phenyl-
indoles of the formula I. Dilution in Mueller Hinton Agar pH 7.4

[2] = test system: Bacteroides corrodens; experiment: In vitro activity against anaerobes in fluid Thioglycollate medium (Table II); assay type: cell-based; conditions: Eikenella corrodens
Procedure: as §1
(§2) In vitro activity of 2-aminoalkyl-3-phenylindoles of the formula I
(§3) against anaerobes in fluid Thioglycollate medium

[3] = test system: Bacteroides fragilis; experiment: as above; assay type: cell-based
Procedure: as §1, §2, §3

[4] = test system: Bacteroides melaninogenicus; experiment: as above; assay type: cell-based
Procedure: as §1, §2, §3

[5] = test system: Clostridium histolyticum; experiment: as above; assay type: cell-based; conditions: Hathewaya histolytica
Procedure: as §1, §2, §3

[6] = test system: Clostridium novyi; experiment: as above; assay type: cell-based
Procedure: as §1, §2, §3

[7] = test system: Clostridium septicum; experiment: as above; assay type: cell-based
Procedure: as §1, §2, §3

[8] = test system: Eubacterium lentum; experiment: as above; assay type: cell-based; conditions: Eggerthella lenta
Procedure: as §1, §2, §3

[9] = test system: Peptostreptococcus; experiment: as above; assay type: cell-based
Procedure: as §1, §2, §3

[10] = test system: Candida albicans; experiment: In vitro Anti-Candida activity, dilutions in Sabouraud's Dextrose Agar (Table III); assay type: cell-based; conditions: 48 h
Procedure: as §1
In vitro Anti-Candida Activity of 2-aminoalkyl-3-phenyl-
indoles of the formula I. Dilutions in Sabouraud's Dextrose
MIC (mcg/ml) after 48 hours

[11] = test system: Aspergillus niger 6275; experiment: In vitro antifungal activity, dilutions in Sabouraud's Dextrose Broth (Table IV); assay type: cell-based; conditions: after 96 hours
Procedure: as §1
(§4) In vitro Antifungal Activity of 2-amioalkyl-3-phenylindoles
(§5) of the formula I against Dermetophytes and Aspergillus.
(§6) Dilutions in Sabouraud's Dextrose Broth.

[12] = test system: Aspergillus sp. No. 3; experiment: as above; assay type: cell-based; conditions: after 96 hours
Procedure: as §1, §4, §5, §6

[13] = test system: Epidermophyton floccosum; experiment: as above; assay type: cell-based; conditions: after 96 hours
Procedure: as §1, §4, §5, §6

[14] = test system: Microsporum distortum; experiment: as above; assay type: cell-based; conditions: after 96 hours
Procedure: as §1, §4, §5, §6

[15] = test system: Microsporum nanum; experiment: as above; assay type: cell-based; conditions: Nannizzia nana; after 96 hours
Procedure: as §1, §4, §5, §6

[16] = test system: Trichophyton ascoides; experiment: as above; assay type: cell-based; conditions: after 96 hours
Procedure: as §1, §4, §5, §6

[17] = test system: Trichophyton discoides; experiment: as above; assay type: cell-based; conditions: after 96 hours
Procedure: as §1, §4, §5, §6

[18] = test system: Trichophyton ferrugineum; experiment: as above; assay type: cell-based; conditions: Microsporum ferrugineum; after 96 hours
Procedure: as §1, §4, §5, §6

[19] = test system: Trichophyton gallinae; experiment: as above; assay type: cell-based; conditions: after 96 hours
Procedure: as §1, §4, §5, §6

[20] = test system: Trichophyton megninii; experiment: as above; assay type: cell-based; conditions: Trichophyton rubrum; after 96 hours
Procedure: as §1, §4, §5, §6

[21] = test system: Trichophyton mentagrophytes; experiment: as above; assay type: cell-based; conditions: 96 h
Procedure: as §1, §4, §5, §6

[22] = test system: Trichophyton rubrum; experiment: as above; assay type: cell-based; conditions: 96 h
Procedure: as §1, §4, §5, §6

[23] = test system: Trichophyton schoenleinii; experiment: as above; assay type: cell-based; conditions: 96 h
Procedure: as §1, §4, §5, §6

[24] = test system: Trichophyton soudenense; experiment: as above; assay type: cell-based; conditions: after 96 hours
Procedure: as §1, §4, §5, §6

[25] = test system: Trichophyton tonsurans; experiment: as above; assay type: cell-based; conditions: after 96 hours
Procedure: as §1, §4, §5, §6

[26] = test system: Tricoderm sp.; experiment: as above; assay type: cell-based; conditions: after 96 hours
Procedure: as §1, §4, §5, §6

[27] = Acute toxicity in mice (Table V); conditions: mouse, in vivo
Procedure: as §1
Acute Toxicity of 2-aminoalkyl-3-phenylindoles of the formula I

[28] = test system: T. mentagrophytes; experiment: Effect against topical T. mentagrophytes infections in guinea pigs (Table VI); assay type: in vivo; design: Average Sum of lesion scores, Days 1-5 / Average Sum of lesion scores, Days 1-10: scale not given here; conditions: for Average Sum of lesion scores, Days 1-5: untreated controls 14.8; for Average Sum of lesion scores, Days 1-10: untreated controls 38.2
Procedure: as §1
Effect of some 2-aminoalkyl-3-phenylindoles of the formula II
against topical T. mentagrophytes infections in guinea pigs.

[29] = test system: Trychomonas vaginalis; experiment: In vitro Anti-Trichomonal activity (Table VII); assay type: cell-based
Procedure: as §1
In vitro Anti-Trichomonal Activity of some 2-aminoalkyl-3-
phenyl-indenes of formula II.

Q: What does the source list for `NCc1[nH]c2cc(Br)c(Cl)cc2c1-c1ccccc1` [D, 2-aminomethyl-6-bromo-5-chloro-3-phenylindole]?
A: MIC ([1]; pH 7.4, strain 373, Mueller Hinton Agar pH 7.4): 3 µg/mL (≈ 8.94 µM); MIC ([1]; pH 7.4, strain 0928/72, Mueller Hinton Agar pH 7.4): 3 µg/mL (≈ 8.94 µM); MIC ([2]; 48 hrs): 0.75 µg/mL (≈ 2.23 µM); MIC ([2]; 72 hrs): 0.75 µg/mL (≈ 2.23 µM); MIC ([3]; 48 hrs): 0.75 µg/mL (≈ 2.23 µM); MIC ([3]; 72 hrs): 0.75 µg/mL (≈ 2.23 µM); MIC ([4]; 48 hrs): 3 µg/mL (≈ 8.94 µM); MIC ([4]; 72 hrs): 3 µg/mL (≈ 8.94 µM); MIC ([5]; 48 hrs): 0.3 µg/mL (≈ 0.894 µM); MIC ([5]; 72 hrs): 0.3 µg/mL (≈ 0.894 µM); MIC ([6]; 48 hrs): 0.75 µg/mL (≈ 2.23 µM); MIC ([6]; 72 hrs): 0.75 µg/mL (≈ 2.23 µM); MIC ([7]; 48 hrs): 0.75 µg/mL (≈ 2.23 µM); MIC ([7]; 72 hrs): 0.75 µg/mL (≈ 2.23 µM); MIC ([8]; 48 hrs): 0.75 µg/mL (≈ 2.23 µM); MIC ([8]; 72 hrs): 0.75 µg/mL (≈ 2.23 µM); MIC ([9]; 48 hrs): 0.3 µg/mL (≈ 0.894 µM); MIC ([9]; 72 hrs): 0.3 µg/mL (≈ 0.894 µM); MIC ([10]; strain 1, after 48 hours): 150 µg/mL (≈ 447 µM); MIC ([10]; strain 2, after 48 hours): 150 µg/mL (≈ 447 µM); MIC ([10]; strain 3, after 48 hours): 75 µg/mL (≈ 223 µM); MIC ([10]; strain 4, after 48 hours): 37.5 µg/mL (≈ 112 µM); MIC ([10]; strain 5, after 48 hours): 75 µg/mL (≈ 223 µM); MIC ([10]; strain 6, after 48 hours): 150 µg/mL (≈ 447 µM); MIC ([10]; strain 8, after 48 hours): 150 µg/mL (≈ 447 µM); MIC ([10]; strain 9, after 48 hours): 150 µg/mL (≈ 447 µM); MIC ([10]; strain 29, after 48 hours): 75 µg/mL (≈ 223 µM); MIC ([10]; strain Atkisson, after 48 hours): 150 µg/mL (≈ 447 µM); MIC ([10]; strain Bertrand, after 48 hours): 150 µg/mL (≈ 447 µM); MIC ([10]; strain Bevan, after 48 hours): 150 µg/mL (≈ 447 µM); MIC ([10]; strain Blunden, after 48 hours): 17.5 µg/mL (≈ 52.1 µM); MIC ([10]; strain Bognay, after 48 hours): 75 µg/mL (≈ 223 µM); MIC ([10]; strain Boyer, after 48 hours): 150 µg/mL (≈ 447 µM); MIC ([10]; strain Burke, after 48 hours): 150 µg/mL (≈ 447 µM); MIC ([10]; strain Burnside, after 48 hours): 75 µg/mL (≈ 223 µM); MIC ([10]; strain Collins, after 48 hours): 75 µg/mL (≈ 223 µM); MIC ([10]; strain Fix, after 48 hours): 75 µg/mL (≈ 223 µM); MIC ([10]; strain Frazier, after 48 hours): 150 µg/mL (≈ 447 µM); MIC ([10]; strain Fulcher, after 48 hours): 75 µg/mL (≈ 223 µM); MIC ([10]; strain Gay, after 48 hours): 150 µg/mL (≈ 447 µM); MIC ([10]; strain Hons, after 48 hours): 150 µg/mL (≈ 447 µM); MIC ([10]; strain Johnson, after 48 hours): 150 µg/mL (≈ 447 µM); MIC ([10]; strain Kenndy 2, after 48 hours): 150 µg/mL (≈ 447 µM); MIC ([10]; strain Kennedy 1, after 48 hours): 17.5 µg/mL (≈ 52.1 µM); MIC ([10]; strain Lehtman, after 48 hours): 150 µg/mL (≈ 447 µM); MIC ([10]; strain Lusk, after 48 hours): 75 µg/mL (≈ 223 µM); MIC ([10]; strain Merkel, after 48 hours): 75 µg/mL (≈ 223 µM); MIC ([10]; strain Newcomb, after 48 hours): 17.5 µg/mL (≈ 52.1 µM); MIC ([10]; strain Sherod, after 48 hours): 150 µg/mL (≈ 447 µM); MIC ([10]; strain Shurelli, after 48 hours): 150 µg/mL (≈ 447 µM); MIC ([10]; strain Sparks, after 48 hours): 150 µg/mL (≈ 447 µM); MIC ([10]; strain Tyner, after 48 hours): 75 µg/mL (≈ 223 µM); MIC [11]: 17.5 µg/mL (≈ 52.1 µM); MIC [12]: 17.5 µg/mL (≈ 52.1 µM); MIC [13]: 7.5 µg/mL (≈ 22.3 µM); MIC [14]: 3 µg/mL (≈ 8.94 µM); MIC [15]: 3 µg/mL (≈ 8.94 µM); MIC [16]: 7.5 µg/mL (≈ 22.3 µM); MIC [17]: 7.5 µg/mL (≈ 22.3 µM); MIC [18]: 17.5 µg/mL (≈ 52.1 µM); MIC [19]: 75 µg/mL (≈ 223 µM); MIC [20]: 3 µg/mL (≈ 8.94 µM); MIC ([21]; strain A, after 96 hours): 7.5 µg/mL (≈ 22.3 µM); MIC ([21]; strain B, after 96 hours): 3 µg/mL (≈ 8.94 µM); MIC ([21]; strain C, after 96 hours): 3 µg/mL (≈ 8.94 µM); MIC ([21]; strain H377, after 96 hours): 7.5 µg/mL (≈ 22.3 µM); MIC ([21]; strain Young, after 96 hours): 7.5 µg/mL (≈ 22.3 µM); MIC ([22]; strain 3, after 96 hours): 3 µg/mL (≈ 8.94 µM); MIC ([22]; strain 360, after 96 hours): 3 µg/mL (≈ 8.94 µM); MIC ([22]; strain Blehl, after 96 hours): 7.5 µg/mL (≈ 22.3 µM); MIC ([22]; strain Haggerty, after 96 hours): 7.5 µg/mL (≈ 22.3 µM); MIC ([23]; strain 2, after 96 hours): 7.5 µg/mL (≈ 22.3 µM); MIC ([23]; strain not given, after 96 hours): 7.5 µg/mL (≈ 22.3 µM); MIC [24]: 3 µg/mL (≈ 8.94 µM); MIC [25]: 17.5 µg/mL (≈ 52.1 µM); MIC [26]: 7.5 µg/mL (≈ 22.3 µM); LD50 ([27]; Oral): ~950 mg/kg; LD50 ([27]; ip, I.P.): 175 mg/kg; LD50 ([27]; sc, S.C.): 750 mg/kg; Average No. of Days to become negative, Cultures ([28]; concentration 1%): > 22 days; Average No. of Days to become negative, Lesion ([28]; concentration 1%): > 22 days; Average Sum of lesion scores, Days 1-5 ([28]; concentration 1%): 11.6; Average Sum of lesion scores, Days 1-10 ([28]; concentration 1%): 29.2; Average No. of Days to become negative, Cultures ([28]; concentration 4%): 6.2 days; Average No. of Days to become negative, Lesion ([28]; concentration 4%): 8.8 days; Average Sum of lesion scores, Days 1-5 ([28]; concentration 4%): 11.8; Average Sum of lesion scores, Days 1-10 ([28]; concentration 4%): 14.2; IC50 ([29]; 50% suppression, read-out: Minimal Level to Produce 50% Suppression): 20 µg/mL (≈ 59.6 µM); IC90 ([29]; 90% suppression, read-out: Minimal Level to Produce 90% Suppression): 38 µg/mL (≈ 113 µM)
